Reference: patent US4472305A, “Hexapeptide amides” (Sterling Drug Inc., priority 1983, dated 1984)
Values joined by “and” are separate entries in the source; they are usually repeats but may differ in a detail not shown here. Identical values can stand only once. Non-standard residues stand in square brackets, D forms with d. Residues, ends and D or L forms follow the SMILES beside them. Phe(4-Cl) = N[C@@H](Cc1ccc(Cl)cc1)C(=O)O; NMeF = CN[C@@H](Cc1ccccc1)C(=O)O; hPhe = N[C@@H](CCc1ccccc1)C(=O)O; NMeL = CN[C@@H](CC(C)C)C(=O)O; NMeNle = CCCC[C@H](NC)C(=O)O; NMeM = CN[C@@H](CCSC)C(=O)O; Nle = CCCC[C@H](N)C(=O)O

Assays:
[1] = test system: longitudinal muscle of guinea pig terminal ileum; test: Guinea pig ileum test (SP agonist and antagonist effect); type: cell-based; details: for Guinea Pig Ileum pA2: antagonism of reference agonist, Schild plot analysis; for Guinea Pig Ileum % Agonism (potency relative to SP): contraction of ileum longitudinal muscle strips, relative molar potency vs SP
Procedure: Strips of longitudinal muscle derived from terminal ileum of adult male guinea pigs (Charles River, 400-600 g.) are mounted in 5-ml. organ baths containing oxygenated Krebs solution containing 1 μM each of atropine and pyrilamine maintained at 30-33 C. and connected to isometric transducers. Following tissue equilibration and repeated washing (45-60 min.), SP or an appropriate reference agonist is added cumulatively to the bath and contractions of the tissue are recorded. The bath is washed thoroughly and 30-45 min. is allowed to elapse before construction of a second reference agonist curve to assure reproducibility of the responses. Test compounds are similarly evaluated for agonist activity up to a maximum concentration of 10-100 μM. […] When appropriate, relative molar potency ratios are calculated (EC50 reference/ED50 test drug). […] The effects of several concentrations of test antagonist, pooled across separate experiments, provide dose-ratio (EC50 shift) data for a standard Schild plot analysis, with computation of the pA2.

SP receptor [2] = biological target: T1, SP receptor (Rattus norvegicus, UniProt P14600); test: 3H-SP binding test, rat submaxillary gland tissue; details: for inhibition at 30 µM: read-out: 3H-SP Binding % Inhibition; for IC50: 3H-SP Binding IC50(μM), rat submaxillary gland tissue (Examples 1-34)
T1 construct: from tissue; host or cells: rat submaxillary gland (crude tissue suspension)
Procedure: (§1) Crude rat submaxillary gland or brain tissue is suspended in buffer containing protease inhibitors (and calcium ions and magnesium ions in the case of brain tissue) and incubated under nitrogen atmosphere with ^3 H-SP and test compound. The bound SP is then separated from free SP by filtration and quantitated by liquid scintillation spectroscopy. This test meets the criteria of reversibility, saturability, sensitivity to known SP agonists and antagonists, and specificity for an SP receptor binding assay.
(§2) With regard to reversibility, addition of unlabelled SP causes a gradual decrease in bound ^3 H-SP, showing that SP is not irreversibly bound to the receptors in the tissue. With regard to saturability, the amount of bound ^3 H-SP in the preparation increases in direct proportion to the concentration of ^3 H-SP added until a saturation point is reached. […] With regard to sensitivity, known SP agonists and antagonists inhibit ^3 H-SP binding.
(§3) The results are expressed either as percent inhibition at a concentration of 30 micromoles per liter (μM) or as an IC50 calculated as the concentration in micromoles per liter.
(§4) The ^3 H-SP binding test results were obtained using rat submaxillary gland tissue for Examples 1-34 and rat brain tissue for Examples 35-42.

rat vas deferens = test: Rat vas deferens test (SP antagonist effect); type: cell-based; details: reversal of potentiation by 10 μM SP of electrically induced contractions
Procedure: Rat vasa deferentia are suspended in organ baths containing warmed, oxygenated Krebs solution and repetitively field-stimulated (0.1 Hz., 1 msec. duration, monophasic pulses) through platinum wire ring electrodes. Rapid, regular contractions of the muscle are recorded via transducers on a Grass polygraph. SP and related tachykinins added to the bath evoke a dose-dependent, stable potentiation of these electrically-induced contractions. For routine screening, a 10 μM concentration of SP is applied to all tissues to produce a 2-6 fold increase in electrically-stimulated twitch height. SP antagonist compounds (1-30 μM) produce an immediate, dose-related reversal of the response of the tissue to SP, which is quantified by determination of an IC50.

SP receptor [3] = biological target: T1, SP receptor; test: 3H-SP binding test, rat brain tissue; details: rat brain tissue (Examples 35-42); for inhibition at 30 µM: 30 μM test compound
Procedure: as §1, §2, §3, §4

T1 sequence (P14600 whole entry): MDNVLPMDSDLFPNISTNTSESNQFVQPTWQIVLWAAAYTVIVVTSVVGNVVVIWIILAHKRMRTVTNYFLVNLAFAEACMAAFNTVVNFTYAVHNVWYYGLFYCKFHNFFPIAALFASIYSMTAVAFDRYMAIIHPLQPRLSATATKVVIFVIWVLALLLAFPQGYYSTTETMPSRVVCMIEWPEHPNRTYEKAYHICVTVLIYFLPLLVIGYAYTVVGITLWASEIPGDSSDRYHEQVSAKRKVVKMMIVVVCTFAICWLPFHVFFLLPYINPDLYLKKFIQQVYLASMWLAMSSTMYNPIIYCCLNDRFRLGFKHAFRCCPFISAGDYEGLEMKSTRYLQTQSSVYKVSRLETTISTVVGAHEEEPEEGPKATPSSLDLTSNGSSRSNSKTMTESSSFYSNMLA

Row | Structure (SMILES) | Guinea Pig Ileum pA2 [1] | Guinea Pig Ileum % Agonism (potency relative to SP) [1] [%] | inhibition at 30 µM (SP receptor [2]) [%] | IC50 (rat vas deferens) [µM] | IC50 (SP receptor [2]) | inhibition at 30 µM (SP receptor [3]) [%] | IC50 (SP receptor [3]) [µM]
1 | CSCC[C@H](NC(=O)[C@H](CC(C)C)NC(=O)[C@@H](Cc1ccccc1)NC(=O)[C@H](Cc1ccccc1)NC(=O)[C@@H](Cc1ccccc1)NC(=O)[C@@H]1CCCN1)C(N)=O [Example 23, HPro-DPhe-Phe-DPhe-Leu-MetNH2] (H-P[dF]F[dF]LM-NH2) | 5.4 | < 0.001 | 53 | 20 | – | – | –
2 | CSCC[C@H](NC(=O)[C@H](CC(C)C)NC(=O)[C@@H](Cc1c[nH]c2ccccc12)NC(=O)[C@H](Cc1ccccc1)NC(=O)[C@@H](Cc1ccccc1)NC(=O)[C@@H]1CCCN1)C(N)=O [Example 12, HPro-DPhe-Phe-DTrp-Leu-MetNH2] (H-P[dF]F[dW]LM-NH2) | 5.6 | 0.0001 | 69 | 13 | 26.8 µM | – | –
3 | CCCC[C@H](NC(=O)[C@H](CC(C)C)NC(=O)[C@@H](Cc1ccccc1)NC(=O)[C@H](Cc1ccccc1)NC(=O)[C@@H](Cc1ccccc1)NC(=O)[C@@H]1CCCN1)C(N)=O [Example 31, HPro-DPhe-Phe-DPhe-Leu-NleNH2] (H-P[dF]F[dF]L[Nle]-NH2) | – | – | 47 | 30 | – | – | –
4 | CSCC[C@H](NC(=O)[C@H](CC(C)C)NC(=O)[C@@H](Cc1ccccc1)NC(=O)[C@H](CCc1ccccc1)NC(=O)[C@@H](Cc1ccccc1)NC(=O)[C@@H]1CCCN1)C(N)=O [Example 29, HPro-DPhe-Hfe-DPhe-Leu-MetNH2] (H-P[dF][hPhe][dF]LM-NH2) | – | – | 64 | > 40 | – | – | –
5 | CSCC[C@@H](C(N)=O)N(C)C(=O)[C@H](CC(C)C)NC(=O)[C@@H](Cc1c[nH]c2ccccc12)NC(=O)[C@H](Cc1ccccc1)NC(=O)[C@@H](Cc1c[nH]c2ccccc12)NC(=O)[C@@H]1CCCN1 [Example 36, HPro-DTrp-Phe-DTrp-Leu-MeMetNH2] (H-P[dW]F[dW]L[NMeM]-NH2) | 6.3 | – | – | – | – | 82 | 11.5
6 | CSCC[C@H](NC(=O)[C@H](CC(C)C)NC(=O)[C@@H](Cc1c[nH]c2ccccc12)NC(=O)[C@H](Cc1ccccc1)NC(=O)[C@@H](Cc1c[nH]c2ccccc12)NC(=O)[C@@H]1CCCN1)C(N)=O [Example 17, HPro-DTrp-Phe-DTrp-Leu-MetNH2] (H-P[dW]F[dW]LM-NH2) | 5.7 | < 0.01 | – | 4.1 | 9.7 µM and 16.1 µM | – | –
7 | CSCC[C@H](NC(=O)[C@H](CC(C)C)NC(=O)CNC(=O)[C@H](Cc1ccccc1)NC(=O)[C@H](Cc1ccccc1)N(C)C(=O)[C@@H]1CCCN1)C(N)=O [Example 40, HPro-MePhe-Phe-Gly-Leu-MetNH2] (H-P[NMeF]FGLM-NH2) | – | – | – | – | – | 9 | –
8 | CSCC[C@H](NC(=O)[C@H](CC(C)C)N(C)C(=O)[C@@H](Cc1c[nH]c2ccccc12)NC(=O)[C@H](Cc1ccccc1)NC(=O)[C@@H](Cc1c[nH]c2ccccc12)NC(=O)[C@@H]1CCCN1)C(N)=O [Example 35, HPro-DTrp-Phe-DTrp-MeLeu-MetNH2] (H-P[dW]F[dW][NMeL]M-NH2) | 6.3 | – | – | – | – | 46 | 43.6
9 | CSCC[C@H](NC(=O)[C@H](CC(C)C)NC(=O)CNC(=O)[C@H](Cc1ccc(Cl)cc1)NC(=O)[C@H](Cc1ccc(Cl)cc1)NC(=O)[C@@H]1CCCN1)C(N)=O [Example 37, HPro-Pcp-Pcp-Gly-Leu-MetNH2] (H-P[Phe(4-Cl)][Phe(4-Cl)]GLM-NH2) | – | – | – | – | – | 62 | –
10 | CCCC[C@@H](C(N)=O)N(C)C(=O)[C@H](CC(C)C)NC(=O)[C@@H](Cc1c[nH]c2ccccc12)NC(=O)[C@H](Cc1ccccc1)NC(=O)[C@@H](Cc1c[nH]c2ccccc12)NC(=O)[C@@H]1CCCN1 [Example 42, HPro-DTrp-Phe-DTrp-Leu-MeNleNH2] (H-P[dW]F[dW]L[NMeNle]-NH2) | – | – | – | – | – | 81 | –
